The source of these data is patent US20250115597A1, “TYK2 INHIBITORS AND COMPOSITIONS AND METHODS THEREOF” (LYNK PHARMACEUTICALS CO. LTD., priority 2021, published 2025).

The nature of series [1]: Hepatocytes metabolic stability assay. The format is in vitro ADME. The settings on record: cryopreserved hepatocytes, human hepatocytes, 1.0×10^6 cells/mL; for CLint scaled at 1 μM: read-out: Human hepatocyte Clint(liver); for half-life at 1 μM: read-out: Human hepatocyte stability T1/2. In short, it runs like this:
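Cryopreserved hepatocytes (1.0×10^6 cells/mL final) were incubated with test compound at 1 μM at 37 °C and sampled at 0, 15, 30, 60 and 120 min, with acetonitrile quench and LC-MS/MS. k came from log-linear % remaining versus time, giving T1/2 and CLint.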

Series [2] deals with T1, Ba/F3-FL-TYK2-P760L cells (Homo sapiens, UniProt P29597, P760L, cells depend on it).
T1 construct: BaF3-FL-T2P760L (nM)
T1 sequence (P29597 whole entry P760L): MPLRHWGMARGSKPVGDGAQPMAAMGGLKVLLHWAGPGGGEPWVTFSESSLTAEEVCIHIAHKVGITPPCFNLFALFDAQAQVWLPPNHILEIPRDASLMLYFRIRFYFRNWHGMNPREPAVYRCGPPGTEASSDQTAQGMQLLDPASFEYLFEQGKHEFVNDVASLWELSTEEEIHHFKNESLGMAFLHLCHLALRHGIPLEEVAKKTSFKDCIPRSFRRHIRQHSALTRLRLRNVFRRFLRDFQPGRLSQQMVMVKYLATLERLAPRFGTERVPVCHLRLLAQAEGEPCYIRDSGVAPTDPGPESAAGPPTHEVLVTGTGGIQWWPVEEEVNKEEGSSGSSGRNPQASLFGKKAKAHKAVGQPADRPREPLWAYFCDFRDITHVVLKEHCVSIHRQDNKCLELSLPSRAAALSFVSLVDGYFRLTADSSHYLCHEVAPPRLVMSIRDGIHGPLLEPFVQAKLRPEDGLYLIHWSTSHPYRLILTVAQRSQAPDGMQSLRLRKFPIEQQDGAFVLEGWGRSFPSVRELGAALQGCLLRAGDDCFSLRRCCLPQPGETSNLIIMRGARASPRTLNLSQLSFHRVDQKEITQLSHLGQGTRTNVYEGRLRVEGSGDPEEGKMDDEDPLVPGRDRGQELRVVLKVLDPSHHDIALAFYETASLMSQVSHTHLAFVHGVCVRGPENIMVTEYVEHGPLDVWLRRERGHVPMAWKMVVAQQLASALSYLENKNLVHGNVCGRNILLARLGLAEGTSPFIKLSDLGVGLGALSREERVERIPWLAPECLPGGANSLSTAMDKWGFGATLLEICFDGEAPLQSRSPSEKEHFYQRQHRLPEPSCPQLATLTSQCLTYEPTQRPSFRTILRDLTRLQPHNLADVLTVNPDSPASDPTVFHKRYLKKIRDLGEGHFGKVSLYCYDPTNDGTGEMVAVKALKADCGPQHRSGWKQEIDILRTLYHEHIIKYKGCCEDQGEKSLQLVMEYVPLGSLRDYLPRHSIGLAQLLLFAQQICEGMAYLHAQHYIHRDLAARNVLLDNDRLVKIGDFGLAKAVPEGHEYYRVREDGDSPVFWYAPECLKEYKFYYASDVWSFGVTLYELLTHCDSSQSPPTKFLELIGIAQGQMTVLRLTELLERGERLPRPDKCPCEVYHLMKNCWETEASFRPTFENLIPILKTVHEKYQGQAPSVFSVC
Kind of series: Anti-proliferative assay, Ba/F3-FL-TYK2-P760L cells (Cell-Titer Glo). In kind it is cell-based. The settings on record: 72 h, read-out: BaF3-FL-T2P760L IC50. The method, boiled down: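 Compound exposure ran 72 h at 37 °C in 5% CO2 across nine 3-fold concentrations from a 20 μM top dose, added 24 h after seeding 2000 cells/well.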

For another series, the target named is T2, TYK2-JH2 domain (Homo sapiens, UniProt P29597).
T2 construct: IC50 on JH2 domain activity (nM)
T2 sequence (P29597 589-875 limits assumed): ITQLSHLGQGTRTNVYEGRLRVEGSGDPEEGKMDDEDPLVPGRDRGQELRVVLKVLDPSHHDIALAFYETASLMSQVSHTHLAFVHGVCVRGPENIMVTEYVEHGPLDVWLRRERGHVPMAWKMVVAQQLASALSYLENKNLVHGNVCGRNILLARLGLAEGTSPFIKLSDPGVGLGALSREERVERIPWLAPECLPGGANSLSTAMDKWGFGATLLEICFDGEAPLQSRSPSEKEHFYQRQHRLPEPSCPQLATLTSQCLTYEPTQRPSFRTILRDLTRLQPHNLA
Description: Binding activity test for JH2 domain of TYK2 (Tb-antibody/tracer FRET). The conditions noted are these: for JAK1/TYK2 selectivity: ratio JAK1-JH2 IC50 / TYK2-JH2 IC50. In short, it runs like this:
(§1)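 FRET read-out after 60 min at 25° C plus overnight at 4° C; tracer displacement detected via Tb-labelled antibody on the JH2 domain. Dose-response used 11 points at 3-fold dilution.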

For series [3], the system named is pSTAT1. Kind of series: Phosphorylation inhibition of STAT in human whole blood, IFN-alpha stimulated (flow cytometry). In kind it is cell-based. The conditions noted are these: 20 min; human whole blood, IFN-alpha 20 mins, CD3 cells; read-out: IC50 on pSTAT1 inhibition in h WB. The method, boiled down:
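Readout is pSTAT1 (Y701) in CD3-stained cells by flow cytometry, with IC50 derived from a 4-parameter logistic equation. Fresh human PBMC or fresh whole blood received a 20-min Universal Type I IFN-alpha stimulation before fixation and cold permeabilization.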
A general note: A flow cytometer gives signals particle by particle.

For series [4], the system named is pSTAT1. Description: Phosphorylation inhibition of STAT in human PBMC, IFN-alpha stimulated (flow cytometry). In kind it is cell-based. The settings on record: 20 min; human PBMC, IFN-alpha 20 mins, CD3 cells; read-out: IC50 on pSTAT1 inhibition in hPBMC. How it is done:
Phosphorylation Inhibition of STAT in Human PBMC and Human Whole Blood Testing:
The inhibitory potential of test articles in human PBMC and human whole blood assay was evaluated by the method of flow cytometry.
IFN-alpha will activate JAK1 and TYK2 kinase in T cells by binding to IFN receptors, and then lead to phosphorylation of STAT1 and STAT2. The phosphorylated STAT1 enter nuclear and promote transcription and expression of IFN-gamma. To evaluate the efficacy of TYK2i in T cells, freshly prepared human PBMC or freshly collected human whole blood will be stimulated with certain unit of human IFN-alpha (Universal Type I IFN(1MU), R&D, 11200-2) for 20 mins in incubator. After stimulation, fix cells with Phosflow™ Fix Buffer I (BD, 557870), and then collect fixed cells by centrifugation (500 g, 8 min). Wash cells once with pre-cooled PBS, and then permeabilize cells with cold Perm Buffer III buffer (BD, 558050) for 45 mins on ice. Collect cells by centrifugation (600 g, 8 min) and washed twice with cold PBS. Stain cells with anti-human CD3 (FITC Mouse Anti-Human CD3, BD, 555332) and anti-pSTAT1_Y701(Alexa Fluor 647 Mouse Anti-Stat1 (pY701), BD, 612597) antibodies. Detect pSTAT1 by flow cytometry (CytoFlex S) and analyze data with FlowJo and GraphPad Prism 8 software. IC50 values of test articles were determined using 4-parameter logistic equation.

Another series addresses T3, JAK1-JH2 domain (Homo sapiens, UniProt P23458).
T3 construct: IC50 on JH2 domain activity (nM)
Kind of series: Binding activity test for JH2 domain of JAK1 (Tb-antibody/tracer FRET). In short, it runs like this:
as §1

The target in the next series is T4, TYK2 (Homo sapiens, UniProt P29597).
T4 construct: purchased Carna Biosciences
T4 sequence (P29597 whole entry): as the sequence (P29597 whole entry P760L) above, with L760P counted along it
Description: TYK2 kinase activity, microfluidic assay (Caliper EZ Reader II). In kind it is biochemical. The conditions noted are these: TYK2 1 nM, 1 mM ATP. In short, it runs like this: (§2)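 Human JAK1, JAK2 or TYK2 enzyme was used in 50 mM HEPES, 10 mM MgCl2, 2 mM DTT and 0.01% Brij35, tuned to 10% conversion of a FAM-labelled peptide. Threefold dilutions of compound (top 5 µM, 1% DMSO) were pre-incubated with enzyme for 10 min, and reactions were stopped with EDTA. Phosphorylation was read by microfluidic mobility shift, and IC50 came from percent-inhibition curves.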

Another series concerns the target T5, JAK1 (Homo sapiens, UniProt P23458).
T5 construct: purchased Carna Biosciences
Kind of series: JAK1 kinase activity, microfluidic assay (Caliper EZ Reader II). The format is biochemical. The settings on record: JAK1 5 nM, 1 mM ATP. The method, boiled down: as §2

Series [5] can be described thus: Plasma protein binding by equilibrium dialysis. The format is in vitro ADME. The conditions noted are these: human plasma, equilibrium dialysis 5 hours at 37° C.; read-out: % Bound (human) (converted). In short, it runs like this:
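Compound spiked into plasma at 0.2 and 2 μM was dialyzed against PBS for 5 h at 37° C with shaking, in duplicate. Plasma and buffer chambers were matrix-matched, protein-precipitated and analysed by LC-MS/MS to derive % unbound, % bound and % recovery.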
(In general: In equilibrium dialysis only unbound substance equilibrates across the membrane.)

Another series addresses T6, JAK2 (Homo sapiens, UniProt O60674).
T6 construct: purchased Carna Biosciences
Description: JAK2 kinase activity, microfluidic assay (Caliper EZ Reader II). The format is biochemical. The conditions noted are these: JAK2 0.125 nM, 1 mM ATP. The method, boiled down: as §2

T3 sequence (P23458 583-855 limits assumed): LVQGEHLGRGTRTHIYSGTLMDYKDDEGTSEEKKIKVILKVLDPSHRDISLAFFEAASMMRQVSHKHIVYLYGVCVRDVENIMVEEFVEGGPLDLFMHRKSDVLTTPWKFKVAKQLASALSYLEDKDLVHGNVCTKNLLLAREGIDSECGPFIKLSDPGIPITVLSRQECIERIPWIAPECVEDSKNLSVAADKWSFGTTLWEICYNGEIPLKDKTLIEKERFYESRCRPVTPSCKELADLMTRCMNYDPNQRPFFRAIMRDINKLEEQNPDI
T5 sequence (P23458 whole entry): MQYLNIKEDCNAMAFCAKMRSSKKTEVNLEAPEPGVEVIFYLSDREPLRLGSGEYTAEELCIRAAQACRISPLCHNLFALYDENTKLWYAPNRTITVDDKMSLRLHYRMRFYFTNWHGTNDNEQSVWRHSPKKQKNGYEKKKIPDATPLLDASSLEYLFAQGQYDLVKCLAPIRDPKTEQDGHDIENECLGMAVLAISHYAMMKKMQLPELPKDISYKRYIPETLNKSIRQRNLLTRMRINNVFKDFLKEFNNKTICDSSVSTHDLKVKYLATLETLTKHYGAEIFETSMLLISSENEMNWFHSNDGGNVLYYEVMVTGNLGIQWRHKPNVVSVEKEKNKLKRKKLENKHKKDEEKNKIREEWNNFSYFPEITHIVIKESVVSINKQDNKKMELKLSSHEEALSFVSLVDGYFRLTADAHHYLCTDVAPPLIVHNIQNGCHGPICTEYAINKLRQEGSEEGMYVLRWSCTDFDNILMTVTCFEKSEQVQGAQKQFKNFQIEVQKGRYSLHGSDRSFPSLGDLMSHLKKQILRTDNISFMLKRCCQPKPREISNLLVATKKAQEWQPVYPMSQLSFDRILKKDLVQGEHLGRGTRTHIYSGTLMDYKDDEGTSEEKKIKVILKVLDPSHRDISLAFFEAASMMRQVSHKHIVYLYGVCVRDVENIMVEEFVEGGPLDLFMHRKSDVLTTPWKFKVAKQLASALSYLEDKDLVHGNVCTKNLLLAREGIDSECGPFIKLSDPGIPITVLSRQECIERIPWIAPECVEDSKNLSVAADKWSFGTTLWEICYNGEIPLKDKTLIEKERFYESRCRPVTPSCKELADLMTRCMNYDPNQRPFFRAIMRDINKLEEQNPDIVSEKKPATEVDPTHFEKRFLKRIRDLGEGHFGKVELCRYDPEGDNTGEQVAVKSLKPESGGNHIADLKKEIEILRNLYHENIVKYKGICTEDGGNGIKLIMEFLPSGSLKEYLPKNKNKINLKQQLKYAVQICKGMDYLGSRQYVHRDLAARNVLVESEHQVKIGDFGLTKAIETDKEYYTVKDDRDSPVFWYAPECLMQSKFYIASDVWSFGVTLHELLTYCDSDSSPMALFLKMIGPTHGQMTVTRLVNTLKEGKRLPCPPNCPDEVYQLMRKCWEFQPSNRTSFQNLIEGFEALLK
T6 sequence (O60674 whole entry): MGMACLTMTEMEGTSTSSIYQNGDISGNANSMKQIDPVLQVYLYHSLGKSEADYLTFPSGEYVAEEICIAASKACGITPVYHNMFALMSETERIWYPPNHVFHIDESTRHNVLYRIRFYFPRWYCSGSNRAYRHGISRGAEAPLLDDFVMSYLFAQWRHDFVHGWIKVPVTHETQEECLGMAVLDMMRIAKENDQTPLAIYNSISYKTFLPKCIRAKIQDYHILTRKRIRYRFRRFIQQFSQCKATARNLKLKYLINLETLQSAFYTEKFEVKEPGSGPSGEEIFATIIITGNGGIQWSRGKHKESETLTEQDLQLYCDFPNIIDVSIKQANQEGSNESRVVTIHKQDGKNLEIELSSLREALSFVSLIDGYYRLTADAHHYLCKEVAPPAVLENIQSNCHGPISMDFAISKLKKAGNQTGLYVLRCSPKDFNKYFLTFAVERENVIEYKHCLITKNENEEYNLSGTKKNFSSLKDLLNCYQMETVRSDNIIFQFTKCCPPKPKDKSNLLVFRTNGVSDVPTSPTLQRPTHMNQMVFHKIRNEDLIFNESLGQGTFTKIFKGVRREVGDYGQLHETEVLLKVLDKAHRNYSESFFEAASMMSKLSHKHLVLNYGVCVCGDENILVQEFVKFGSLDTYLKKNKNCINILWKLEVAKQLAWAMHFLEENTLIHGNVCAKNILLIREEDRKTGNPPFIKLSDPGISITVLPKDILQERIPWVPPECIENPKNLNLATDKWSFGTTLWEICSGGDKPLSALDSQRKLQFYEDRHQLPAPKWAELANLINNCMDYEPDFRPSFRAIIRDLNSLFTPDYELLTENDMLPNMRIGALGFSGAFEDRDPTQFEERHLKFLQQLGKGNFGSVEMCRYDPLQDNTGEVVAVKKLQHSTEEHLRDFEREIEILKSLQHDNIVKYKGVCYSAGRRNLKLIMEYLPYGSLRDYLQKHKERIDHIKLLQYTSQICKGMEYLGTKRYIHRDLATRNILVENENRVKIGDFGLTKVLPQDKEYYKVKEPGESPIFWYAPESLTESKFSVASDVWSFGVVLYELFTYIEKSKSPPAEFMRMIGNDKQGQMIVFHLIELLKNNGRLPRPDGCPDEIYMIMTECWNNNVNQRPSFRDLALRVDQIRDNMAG

As to `[2H]C([2H])([2H])NC(=O)c1cnc(NC(=O)C2CC2)cc1Nc1ccn2ncc(CC)c2c1OC` [Example 166, 6-(Cyclopropanecarboxamido)-4-((3-ethyl-4-methoxypyrazolo[1,5-a]pyridin-5-yl)amino)-N-(methyl-d3)nicotinamide], the CLint scaled at 1 μM in series [1] is 11.2 mL/min/kg. Further, the half-life at 1 μM in series [1] turned out to be 2.61 h. For the same compound, the GI50 in [2] stood at 51.6 nM. The 50% inhibitory concentration (IC50) at TYK2-JH2 domain was found to be 0.154 nM; in the series with pSTAT1 [3], 471 nM; in the series with pSTAT1 [4] it was 20.7 nM; at JAK1-JH2 domain, 13.6 nM. Also, the JAK1/TYK2 selectivity on TYK2-JH2 domain is reported as 88.3.
With `[2H]C([2H])([2H])NC(=O)c1cnc(NC(=O)C2CC2)cc1Nc1ccn2ncc(C)c2c1OC` [Example 169, 6-(Cyclopropanecarboxamido)-4-((4-methoxy-3-methylpyrazolo[1,5-a]pyridin-5-yl)amino)-N-(methyl-d3)nicotinamide], the CLint scaled at 1 μM in series [1] was found to be 8.6 mL/min/kg. Besides, the half-life at 1 μM in [1] was determined as 3.44 h. Besides, in series [2], the GI50 is 64.9 nM. In addition, the concentration for half-maximal inhibition (IC50) at TYK2-JH2 domain was determined as 0.31 nM; with pSTAT1 [3] it was 422 nM; with pSTAT1 [4] it was 35.1 nM; on JAK1-JH2 domain, 8.76 nM. Also, the JAK1/TYK2 selectivity on TYK2-JH2 domain came to 28.3.
On to `[2H]C([2H])([2H])NC(=O)c1cnc(NC(=O)C2CC2)cc1Nc1ccc2cnn(CC#N)c2c1OC` [Example 202, 4-((1-(Cyanomethyl)-7-methoxy-1H-indazol-6-yl)amino)-6-(cyclopropanecarboxamido)-N-(methyl-d3)nicotinamide], for which the IC50 on TYK2 was greater than 5000 nM; against JAK1, greater than 5000 nM; with pSTAT1 [3], 147 nM; in the series on pSTAT1 [4], 33.3 nM; on JAK2, greater than 5000 nM. Besides, the GI50 in [2] was 45.7 nM. For the same compound, in series [5], the fraction unbound at 5 h is 0.113.
`[2H]C([2H])([2H])NC(=O)c1cnc(NC(=O)C2CC2)cc1Nc1cn(CC2CC2)c2ncn(CC)c(=O)c12` [Example 213, 6-(Cyclopropanecarboxamido)-4-((7-(cyclopropylmethyl)-3-ethyl-4-oxo-4,7-dihydro-3H-pyrrolo[2,3-d]pyrimidin-5-yl)amino)-N-(methyl-d3)nicotinamide]: in series [2], the GI50 was found to be 74.5 nM. Further, the IC50 at TYK2-JH2 domain is 0.25 nM; in the series on pSTAT1 [3], 376 nM; with pSTAT1 [4], 107 nM. In addition, the fraction unbound at 5 h in series [5] is 0.025.

In general, IC50 refers to the midpoint of a concentration-inhibition curve.
